Experimental data taken from patent US10660334B2, “Fused bicyclic heterocycle derivatives as pesticides” (Bayer CropScience Aktiengesellschaft, priority 2016, dated 2020).

Columns and labels:
[1] = log P by HPLC on reversed-phase column (EEC Directive 79/831 Annex V.A8), acidic range; format: physicochemical; conditions: reversed-phase C18 HPLC column; HPLC reversed-phase C18, 55° C., pH 2.7, 0.1% aqueous formic acid and acetonitrile; read-out: log P (HCOOH)
Description: The log P values are measured according to EEC Directive 79/831 Annex V.A8 by HPLC (high-performance liquid chromatography) on a reversed-phase column (C18). Temperature: 55° C. The LC-MS determination in the acidic range is effected at pH 2.7 with 0.1% aqueous formic acid and acetonitrile (containing 0.1% formic acid) as eluents; linear gradient from 10% acetonitrile to 95% acetonitrile. Called log P (HCOOH) in the table.

Ctenocephalides felis [2] = test: Ctenocephalides felis in vitro contact test with adult cat fleas; format: in vivo; conditions: application rate 5 μg/cm^2 (=500 g/ha), after 48 h
Description: Ctenocephalides felis—In Vitro Contact Tests with Adult Cat Fleas For the coating of the test tubes, 9 mg of active ingredient are first dissolved in 1 ml of acetone p.a. and then diluted to the desired concentration with acetone p.a. 250 μl of the solution are distributed homogeneously on the inner walls and the base of a 25 ml glass tube by turning and rocking on an orbital shaker (rocking rotation at 30 rpm for 2 h). With 900 ppm of active ingredient solution and internal surface area 44.7 cm^2, given homogeneous distribution, an area-based dose of 5 μg/cm^2 is achieved. After the solvent has evaporated off, the tubes are populated with 5-10 adult cat fleas (Ctenocephalides felis), sealed with a perforated plastic lid and incubated in a horizontal position at room temperature and ambient humidity. After 48 h, efficacy is determined. To this end, the tubes are stood upright and the fleas are knocked to the base of the tube. Fleas which remain motionless at the base or move in an uncoordinated manner are considered to be dead or moribund. […] 100% efficacy means that all the fleas were dead or moribund. 0% efficacy means that no fleas were harmed.

Myzus persicae [3] = test: Myzus persicae oral test; format: in vivo; conditions: 120 h, application rate 4 ppm, after 5 days, read-out: efficacy (aphids killed)
Description: Myzus persicae—Oral Test Solvent: 100 parts by weight of acetone To produce a suitable active ingredient formulation, 1 part by weight of active ingredient is dissolved with the stated parts by weight of solvent and made up to the desired concentration with water. 50 μl of the active ingredient preparation are transferred into microtitre plates and made up to a final volume of 200 μl with 150 μl of IPL41 insect medium (33%+15% sugar). Subsequently, the plates are sealed with parafilm, which a mixed population of green peach aphids (Myzus persicae) within a second microtitre plate is able to puncture and imbibe the solution. After 5 days, the efficacy in % is determined. 100% means that all the aphids have been killed; 0% means that no aphids have been killed.

Tetranychus urticae = Tetranychus urticae spray test, OP-resistant; format: in vivo; conditions: application rate 100 g/ha, spray on bean leaf discs, after 6 days
Description: Tetranychus urticae—Spray Test, OP-Resistant
(§1) Solvent: 78.0 parts by weight of acetone • • 1.5 parts by weight of dimethylformamide
(§2) Emulsifier: alkylaryl polyglycol ether
(§3) To produce a suitable active ingredient formulation, 1 part by weight of active ingredient is dissolved with the specified parts by weight of solvent and made up to the desired concentration with water containing an emulsifier concentration of 1000 ppm. To produce further test concentrations, the formulation is diluted with emulsifier-containing water.
Discs of bean leaves (Phaseolus vulgaris) infested with all stages of the greenhouse red spider mite (Tetranychus urticae) are sprayed with an active ingredient formulation of the desired concentration.
After 6 days, the efficacy in % is determined. 100% means that all the spider mites have been killed; 0% means that no spider mites have been killed.

Myzus persicae [4] = test: Myzus persicae spray test; format: in vivo; conditions: foliar, 120 h, spray on Chinese cabbage leaf discs, after 5 days, read-out: efficacy (aphids killed); for pest or weed control at 100 g/ha: application rate 100 g/ha; for pest or weed control at 20 g/ha: application rate 20 g/ha
Description: Myzus persicae—Spray Test Solvent: 78 parts by weight of acetone • • 1.5 parts by weight of dimethylformamide Emulsifier: alkylaryl polyglycol ether To produce a suitable active ingredient formulation, 1 part by weight of active ingredient is dissolved with the specified parts by weight of solvent and made up to the desired concentration with water containing an emulsifier concentration of 1000 ppm. To produce further test concentrations, the formulation is diluted with emulsifier-containing water. Discs of Chinese cabbage leaves (Brassica pekinensis) infested by all stages of the green peach aphid (Myzus persicae) are sprayed with an active ingredient formulation of the desired concentration. After 5 days, the efficacy in % is determined. 100% means that all the aphids have been killed; 0% means that no aphids have been killed.

Ctenocephalides felis [5] = test: Ctenocephalides felis oral test; format: in vivo; conditions: application rate 100 ppm in citrated cattle blood, after 2 days, adult cat fleas
Description: Ctenocephalides felis—Oral Test Solvent: dimethyl sulfoxide To produce a suitable active ingredient formulation, 10 mg of active ingredient are mixed with 0.5 ml of dimethyl sulfoxide. Dilution with citrated cattle blood gives the desired concentration. About 20 unfed adult cat fleas (Cienocephalides felis) are placed into a chamber which is closed at the top and bottom with gauze. A metal cylinder whose bottom end is closed with parafilm is placed onto the chamber. The cylinder contains the blood/active ingredient formulation, which can be imbibed by the fleas through the parafilm membrane. After 2 days, the kill in % is determined. 100% means that all of the fleas have been killed; 0% means that none of the fleas have been killed.

Lucilia cuprina = Lucilia cuprina test; format: in vivo; conditions: application rate 100 ppm, L1 larvae, after 2 days
Description: Lucilia cuprina Test Solvent: dimethyl sulfoxide To produce a suitable active ingredient formulation, 10 mg of active ingredient are mixed with 0.5 ml of dimethyl sulfoxide, and the concentrate is diluted with water to the desired concentration. About 20 L1 larvae of the Australian sheep blowfly (Lucilia cuprina) are transferred into a test vessel containing minced horsemeat and the active ingredient formulation of the desired concentration. After 2 days, the kill in % is determined. 100% means that all the larvae have been killed; 0% means that no larvae have been killed.

Musca domestica = Musca domestica test; format: in vivo; conditions: application rate 100 ppm, adult houseflies, after 2 days
Description: Musca domestica Test Solvent: dimethyl sulfoxide To produce a suitable active ingredient formulation, 10 mg of active ingredient are mixed with 0.5 ml of dimethyl sulfoxide, and the concentrate is diluted with water to the desired concentration. Vessels containing a sponge treated with sugar solution and the active ingredient formulation of the desired concentration are populated with 10 adult houseflies (Musca domestica). After 2 days, the kill in % is determined. 100% means that all of the flies have been killed; 0% means that none of the flies have been killed.

Boophilus microplus = Boophilus microplus injection test; format: in vivo; conditions: application rate 20 μg/animal, injection into engorged adult female cattle ticks, after 7 days
Description: Boophilus microplus—Injection Test Solvent: dimethyl sulfoxide To produce a suitable active ingredient formulation, 10 mg of active ingredient are mixed with 0.5 ml of solvent and the concentrate is diluted to the desired concentration with solvent. 1 μl of the active ingredient solution is injected into the abdomen of 5 engorged adult female cattle ticks (Boophilus microplus). The animals are transferred into dishes and kept in a climate-controlled room. Efficacy is assessed after 7 days by laying of fertile eggs. Eggs which are not visibly fertile are stored in a climate-controlled cabinet until the larvae hatch after about 42 days. An efficacy of 100% means that none of the ticks has laid any fertile eggs; 0% means that all the eggs are fertile.

Spodoptera frugiperda = Spodoptera frugiperda spray test; format: in vivo; conditions: application rate 100 g/ha, spray on maize leaf discs, after 7 days
Description: Spodoptera frugiperda—Spray Test Solvent: 78.0 parts by weight of acetone • • 1.5 parts by weight of dimethylformamide Emulsifier: alkylaryl polyglycol ether To produce a suitable active ingredient formulation, 1 part by weight of active ingredient is dissolved with the specified parts by weight of solvent and made up to the desired concentration with water containing an emulsifier concentration of 1000 ppm. To produce further test concentrations, the formulation is diluted with emulsifier-containing water. Leaf discs of maize (Zea mays) are sprayed with an active ingredient formulation of the desired concentration and, after drying, populated with caterpillars of the armyworm (Spodoptera frugiperda). After 7 days, the efficacy in % is determined. 100% means that all the caterpillars have been killed; 0% means that no caterpillar has been killed.

Meloidogyne incognita = Meloidogyne incognita test; format: in vivo; conditions: application rate 20 ppm, lettuce, after 14 days
Description: Meloidogyne incognita Test Solvent: 125.0 parts by weight of acetone To produce a suitable active ingredient formulation, 1 part by weight of active ingredient is mixed with the stated amount of solvent and the concentrate is diluted to the desired concentration with water. Vessels are filled with sand, active ingredient solution, an egg/larvae suspension of the southern root-knot nematode (Meloidogyne incognita) and lettuce seeds. The lettuce seeds germinate and the plants develop. The galls develop on the roots. After 14 days, the nematicidal efficacy in % is determined by the formation of galls. 100% means that no galls were found; 0% means that the number of galls on the treated plants corresponds to the untreated control.

Phaedon cochleariae = Phaedon cochleariae spray test; format: in vivo; conditions: application rate 100 g/ha, spray on Chinese cabbage leaf discs, after 7 days
Description: Phaedon cochleariae—Spray Test
as §1, §2, §3
Discs of Chinese cabbage leaves (Brassica pekinensis) are sprayed with an active ingredient formulation of the desired concentration and, after drying, populated with larvae of the mustard beetle (Phaedon cochleariae).
After 7 days, the efficacy in % is determined. 100% means that all the beetle larvae have been killed; 0% means that no beetle larvae have been killed.

| Structure (SMILES) | chromatographic logP [1] | efficacy (fleas dead or moribund) (Ctenocephalides felis [2]) [%] | pest or weed control at 4 ppm (Myzus persicae [3]) [%] | efficacy (spider mites killed) (Tetranychus urticae) [%] | pest or weed control at 100 g/ha (Myzus persicae [4]) [%] | efficacy (kill) (Ctenocephalides felis [5]) [%] | efficacy (kill) (Lucilia cuprina) [%] | pest or weed control at 20 g/ha (Myzus persicae [4]) [%] | efficacy (kill) (Musca domestica) [%] | efficacy (laying of fertile eggs) (Boophilus microplus) [%] | efficacy (caterpillars killed) (Spodoptera frugiperda) [%] | nematicidal efficacy (formation of galls) (Meloidogyne incognita) [%] | efficacy (beetle larvae killed) (Phaedon cochleariae) [%] |
| --- | --- | --- | --- | --- | --- | --- | --- | --- | --- | --- | --- | --- | --- |
| CCSc1c(-c2nc3cc(C(F)(F)F)ncc3n2C)nc2n1CCCC2 [Example I-001, 2-(3-Ethylsulfanyl-5,6,7,8-tetrahydroimidazo[1,2-a]pyridin-2-yl)-3-methyl-6-(trifluoromethyl)imidazo[4,5-c]pyridine] | 2.37 | 100 |  |  |  |  |  |  |  |  |  |  |  |
| CCS(=O)(=O)c1c(-c2nc3cc(C(F)(F)F)ncc3n2C)nc2n1CC(C(F)(F)F)CC2 (stereo not shown) [Example I-003] |  |  | 100 | 90 | 100 |  |  |  |  |  |  |  |  |
| CCS(=O)(=O)c1c(-c2nc3cc(C(F)(F)F)ncc3n2C)nc2n1CCC(C)C2 (stereo not shown) [Example I-007] |  | 100 | 100 |  | 100 | 80 | 100 | 100 | 100 |  |  |  |  |
| CCS(=O)(=O)c1c(-c2nc3cc(C(F)(F)F)ncc3n2C)nc2n1CC(C)CC2 (stereo not shown) [Example I-009] |  |  | 100 |  | 100 | 80 | 100 | 90 | 100 | 100 |  |  |  |
| CCS(=O)(=O)c1c(-c2nc3cc(C(F)(F)F)ncc3n2C)nc2n1CCC(C(F)(F)F)C2 (stereo not shown) [Example I-010] |  |  | 100 |  |  |  |  | 90 |  |  | 83 |  |  |
| CCS(=O)(=O)c1c(-c2nc3cc(C(F)(F)F)cnc3n2C)nc2n1CCCC2 [Example I-011] |  |  | 100 |  | 90 | 95 | 100 | 90 | 80 |  |  |  |  |
| CCS(=O)(=O)c1c(-c2nc3cc(C(F)(F)C(F)(F)F)ncc3n2C)nc2n1CCCC2 [Example I-012] |  |  | 100 |  | 90 | 100 | 100 | 90 |  |  | 83 | 90 | 100 |
| Cn1c(-c2nc3n(c2S(C)(=O)=O)CCCC3)nc2cc(C(F)(F)C(F)(F)F)ncc21 [Example I-013] |  |  | 100 |  | 90 | 95 | 100 |  | 80 |  |  |  | 83 |
| CCS(=O)(=O)c1c(-c2nc3cc(C(F)(F)C(F)(F)F)cnc3n2C)nc2n1CCCC2 [Example I-017] |  |  | 100 |  | 100 |  |  | 90 |  |  | 100 |  |  |
